Test results reported in patent US20140309244A1, “NOVEL MICROBIOCIDES” (SYNGENTA PARTICIPATIONS AG, priority 2010, published 2014).

Assays:
[1] = test system: Blumeria graminis f. sp. tritici (Erysiphe graminis f. sp. tritici); test: Blumeria graminis f. sp. tritici (Erysiphe graminis f. sp. tritici) / wheat / leaf disc preventative (powdery mildew on wheat); type: in vivo; conditions: foliar, wheat cv. Kanzler leaf segments, inoculated 1 day after application, assessed 6-8 days after application, read-out: control of Blumeria graminis (percent disease control compared to untreated)
[2] = test system: Gaeumannomyces graminis; test: Gaeumannomyces graminis / liquid culture (take-all of cereals); type: cell-based; conditions: liquid culture of mycelial fragments, PDB potato dextrose broth, 96-well plate, 24° C., 4-5 days after application, read-out: control of Gaeumannomyces graminis (inhibition of growth, photometric)
[3] = test system: Mycosphaerella arachidis (Cercospora arachidicola); test: Mycosphaerella arachidis (Cercospora arachidicola) / liquid culture (early leaf spot); type: cell-based; conditions: PDB potato dextrose broth, 96-well plate, 24° C., 4-5 days after application, read-out: control of Mycosphaerella arachidis (inhibition of growth, photometric)
[4] = test system: Botryotinia fuckeliana (Botrytis cinerea); test: Botryotinia fuckeliana (Botrytis cinerea) / liquid culture (gray mould); type: cell-based; conditions: Vogels broth, 96-well plate, 24° C., 3-4 days after application, read-out: control of Botryotinia fuckeliana (inhibition of growth, photometric)
[5] = test system: Mycosphaerella graminicola (Septoria tritici); test: Mycosphaerella graminicola (Septoria tritici) / liquid culture (Septoria blotch); type: cell-based; conditions: Zymoseptoria tritici, PDB potato dextrose broth, 96-well plate, 24° C., 4-5 days after application, read-out: control of Mycosphaerella graminicola (inhibition of growth, photometric)
[6] = test system: Pyrenophora teres; test: Pyrenophora teres / barley / leaf disc preventative (net blotch); type: in vivo; conditions: foliar, barley cv Hasso leaf segments, inoculated two days after application, assessed 5-7 days after application, read-out: control of Pyrenophora teres (disease control compared to untreated)
[7] = test system: Puccinia recondita f. sp. tritici; test: Puccinia recondita f. sp. tritici / wheat / leaf disc curative (brown rust); type: in vivo; conditions: foliar, wheat cv Kanzler leaf segments, applied 1 day after inoculation, assessed 6-8 days after application, read-out: control of Puccinia recondita f. sp. tritici (percent disease control compared to untreated)
Method: Puccinia recondita f. sp. tritici/Wheat/Leaf Disc Curative (Brown Rust): Wheat leaf segments cv Kanzler were placed on agar in 24-well plates. The leaf segments were inoculated with a spore suspension of the fungus. The plates were stored in darkness at 19° C. and 75% relative humidity. The formulated test compound diluted in water was applied at an application rate of 200 ppm 1 day after inoculation.

[8] = test system: Phaeosphaeria nodorum (Septoria nodorum); test: Phaeosphaeria nodorum (Septoria nodorum) / wheat / leaf disc preventative (glume blotch); type: in vivo; conditions: Parastagonospora nodorum, foliar, wheat cv Kanzler leaf segments, inoculated 2 days after application, assessed 5-7 days after application, read-out: control of Phaeosphaeria nodorum (percent disease control compared to untreated)
[9] = test system: Glomerella lagenarium (Colletotrichum lagenarium); test: Glomerella lagenarium (Colletotrichum lagenarium) / liquid culture (anthracnose); type: cell-based; conditions: Colletotrichum orbiculare, PDB potato dextrose broth, 96-well plate, 24° C., 3-4 days after application, read-out: control of Glomerella lagenarium (inhibition of growth, photometric)
[10] = test system: Puccinia recondita f. sp. tritici; test: Puccinia recondita f. sp. tritici / wheat / leaf disc preventative (brown rust); type: in vivo; conditions: foliar, wheat cv Kanzler leaf segments, inoculated 1 day after application, assessed 7-9 days after application, read-out: control of Puccinia recondita f. sp. tritici (percent disease control compared to untreated)
Method: Puccinia recondita f. sp. tritici/Wheat/Leaf Disc Preventative (Brown Rust) Wheat leaf segments cultivated variety (cv) Kanzler were placed on agar in 24-well plates and sprayed with formulated test compound diluted in water at an application rate of 200 ppm. The leaf disks were inoculated with a spore suspension of the fungus 1 day after application. The inoculated leaf segments were incubated at 19° C. and 75% relative humidity under a light regime of 12/12 h (light/dark) in a climate cabinet and the activity of a compound was assessed as percent disease control compared to untreated when an appropriate level of disease damage appears in untreated check leaf segments (7-9 days after application). […].103

[11] = test system: Monographella nivalis (Microdochium nivale); test: Monographella nivalis (Microdochium nivale) / liquid culture (foot rot cereals); type: cell-based; conditions: PDB potato dextrose broth, 96-well plate, 24° C., 4-5 days after application, read-out: control of Monographella nivalis (inhibition of growth, photometric)
Method: Monographella nivalis (Microdochium nivale)/Liquid Culture (Foot Rot Cereals): Conidia of the fungus from cryogenic storage were directly mixed into nutrient broth (PDB potato dextrose broth). After placing a DMSO solution of test compound into a 96-well microtiter plate at an application rate of 200 ppm, the nutrient broth containing the fungal spores was added. The test plates were incubated at 24° C. and the inhibition of growth was determined photometrically 4-5 days after application. […].103

CO/N=C(/c1cccc(CCCO/N=C(\C)c2cccc(C)n2)n1)C(C)C (single isomer, unassigned) [P.23A]
≥ 80%: pest or weed control at 200 ppm [1] | inhibition at 200 ppm [2] | inhibition at 200 ppm [3] | inhibition at 200 ppm [4] | inhibition at 200 ppm [5] | pest or weed control at 200 ppm [6]

CCO/N=C(\C)c1cccc(CCCO/N=C(\C)c2cccc(C)n2)n1 [P.01]
≥ 80%: pest or weed control at 200 ppm [1] | pest or weed control at 200 ppm [7] | inhibition at 200 ppm [3] | pest or weed control at 200 ppm [8] | inhibition at 200 ppm [9] | inhibition at 200 ppm [4] | pest or weed control at 200 ppm [10] | inhibition at 200 ppm [5] | pest or weed control at 200 ppm [6]

C#CCO/N=C(\C)c1cccc(CCCO/N=C(\C)c2cccc(C)n2)n1 [P.02]
≥ 80%: inhibition at 200 ppm [2] | pest or weed control at 200 ppm [7] | inhibition at 200 ppm [3] | pest or weed control at 200 ppm [8] | inhibition at 200 ppm [4] | inhibition at 200 ppm [11] | inhibition at 200 ppm [5]

CO/N=C(\C)c1cccc(CCCO/N=C(\C)c2cccc(-c3ccccc3OC)n2)n1 [P.08]
≥ 80%: pest or weed control at 200 ppm [1] | pest or weed control at 200 ppm [7] | inhibition at 200 ppm [3] | pest or weed control at 200 ppm [8] | inhibition at 200 ppm [4] | pest or weed control at 200 ppm [10] | inhibition at 200 ppm [11] | inhibition at 200 ppm [5] | pest or weed control at 200 ppm [6]

C=CCO/N=C(\C)c1cccc(CCCO/N=C(\C)c2cccc(C)n2)n1 [P.09]
≥ 80%: pest or weed control at 200 ppm [1] | pest or weed control at 200 ppm [7] | inhibition at 200 ppm [3] | pest or weed control at 200 ppm [8] | inhibition at 200 ppm [9] | inhibition at 200 ppm [4] | pest or weed control at 200 ppm [10] | inhibition at 200 ppm [11] | inhibition at 200 ppm [5] | pest or weed control at 200 ppm [6]

CO/N=C(\C)c1cccc(C(CCO/N=C(\C)c2cccc(C)n2)=C(Cl)Cl)n1 [P.13]
≥ 80%: inhibition at 200 ppm [2] | inhibition at 200 ppm [3] | pest or weed control at 200 ppm [8] | inhibition at 200 ppm [5] | pest or weed control at 200 ppm [6]

CO/N=C(\C)c1cccc(CCCO/N=C(\C)c2cccc(-c3cccc(OC)c3)n2)n1 [P.14]
≥ 80%: inhibition at 200 ppm [2] | inhibition at 200 ppm [3] | pest or weed control at 200 ppm [8] | pest or weed control at 200 ppm [10] | inhibition at 200 ppm [5] | pest or weed control at 200 ppm [6]

CC/C(=N\OC)c1cccc(CCCO/N=C(\C)c2cccc(C)n2)n1 [P.22]
≥ 80%: pest or weed control at 200 ppm [1] | inhibition at 200 ppm [2] | pest or weed control at 200 ppm [7] | inhibition at 200 ppm [3] | pest or weed control at 200 ppm [8] | inhibition at 200 ppm [9] | inhibition at 200 ppm [4] | pest or weed control at 200 ppm [10] | inhibition at 200 ppm [11] | inhibition at 200 ppm [5] | pest or weed control at 200 ppm [6]

CO/N=C(\C)c1cccc(CCCO/N=C/c2nc(C)ccc2O)n1 [P.35]
≥ 80%: inhibition at 200 ppm [2] | inhibition at 200 ppm [3] | inhibition at 200 ppm [4] | inhibition at 200 ppm [11] | inhibition at 200 ppm [5]

CO/N=C(\C)c1cccc(CCCO/N=C(\C)c2cc(C#N)ccn2)n1 [P.37]
≥ 80%: inhibition at 200 ppm [2]

CO/N=C(\C)c1cccc(CCCO/N=C(\C)c2nc(C(F)(F)F)ccc2C(=O)OC)n1 [P.46]
≥ 80%: inhibition at 200 ppm [2] | inhibition at 200 ppm [3] | pest or weed control at 200 ppm [8] | inhibition at 200 ppm [4] | inhibition at 200 ppm [5]

CO/N=C(\C)c1cccc(CCCO/N=C(\c2ccccc2)c2ccccn2)n1 [P.53]
≥ 80%: inhibition at 200 ppm [2]

CC/C(=N\OCCCc1cccc(/C(C)=N/OC)n1)c1ccccn1 [P.54]
≥ 80%: inhibition at 200 ppm [2]

CO/N=C(\C)c1cccc(CCCO/N=C2\CCCc3ccc(C)nc32)n1 [P.57]
≥ 80%: inhibition at 200 ppm [2] | inhibition at 200 ppm [3] | pest or weed control at 200 ppm [8] | inhibition at 200 ppm [9] | inhibition at 200 ppm [4] | inhibition at 200 ppm [11] | inhibition at 200 ppm [5]

CO/N=C(\C)c1cccc(CCCO/N=C2\CCCc3cnc(-c4ccccc4)nc32)n1 [P.61, 2-Phenyl-6,7-dihydro-5H-quinazolin-8-one O-[3-(6-(1-((E)-methoxyimino)-ethyl)-pyridin-2-yl)-propyl]-oxime]
≥ 80%: inhibition at 200 ppm [2] | inhibition at 200 ppm [3] | pest or weed control at 200 ppm [8] | inhibition at 200 ppm [4] | inhibition at 200 ppm [5]

CO/N=C(\C)c1cccc(CCCO/N=C2\CCCc3c2nc2cc(Cl)ccc2c3C)n1 [P.83]
≥ 80%: pest or weed control at 200 ppm [1] | inhibition at 200 ppm [2] | inhibition at 200 ppm [3] | inhibition at 200 ppm [9] | inhibition at 200 ppm [4] | inhibition at 200 ppm [5] | pest or weed control at 200 ppm [6]

CO/N=C(\C)c1cccc(CCCO/N=C2\CCCc3c2nc2ccc(Br)cc2c3C)n1 [P.84]
≥ 80%: pest or weed control at 200 ppm [1] | inhibition at 200 ppm [2] | inhibition at 200 ppm [3] | pest or weed control at 200 ppm [8] | inhibition at 200 ppm [9] | inhibition at 200 ppm [4] | inhibition at 200 ppm [5] | pest or weed control at 200 ppm [6]

CO/N=C(\C)c1cccc(CCCO/N=C2\CCCc3c2nc2ccccc2c3-c2ccccc2)n1 [P.99]
≥ 80%: inhibition at 200 ppm [3] | inhibition at 200 ppm [9] | inhibition at 200 ppm [4] | inhibition at 200 ppm [11] | inhibition at 200 ppm [5]

CO/N=C(\C)c1cccc(CCCON=C(CC#N)c2ccccn2)n1 [P.105]
≥ 80%: inhibition at 200 ppm [2]
